This is an account of results in patent publication US5932606A, “Pyrazinone, pyridinone, piperidine and pyrrolidine thrombin inhibitors” (Merck & Co., Inc., priority 1998, dated 1999).

Square brackets hold non-standard residues; d marks the D form. Peptide text beside a SMILES is read from it. * marks the point of attachment. AFC = O=c1cc(C(F)(F)F)c2ccc(N*)cc2o1; pNA = O=[N+]([O-])c1ccc(N*)cc1; Cbz = O=C(OCc1ccccc1)*; Sar = CNCC(=O)O

One test deals with thrombin. The experiment in a line: More sensitive thrombin activity assay with fluorogenic substrate Z-GPR-afc (fluorescence at 500 nm). The test is classed as biochemical, human. As to conditions: excitation at 400 nm. As for the experimental part:
(§1) Assays of human a-thrombin and human trypsin were performed at 25° C. in 0.05 M TRIS buffer pH 7.4, 0.15 M NaCl, 0.1% PEG. Trypsin assays also contained 1 mM CaCl2.
In certain studies with potent inhibitors (Ki <10 nM) where the degree of inhibition of thrombin was high, a more sensitive activity assay was employed. […] Concentrations of stock solutions of Z-GPR-afc were determined from measurements of absorbance at 380 nm of the 7-amino-4-trifluoromethyl coumarin produced upon complete hydrolysis of an aliquot of the stock solution by thrombin.
(§2) Activity assays were performed by diluting a stock solution of substrate at least tenfold to a final concentration ≤0.5 Km into a solution containing enzyme or enzyme equilibrated with inhibitor. Times required to achieve equilibration between enzyme and inhibitor were determined in control experiments. Initial velocities of product formation in the absence (Vo) or presence of inhibitor (Vi) were measured. Assuming competitive inhibition, and that unity is negligible compared Km /[S], […] (where [S], [I], and e respectively represent the total concentrations, of substrate, inhibitor and enzyme), the equilibrium constant (Ki) for dissociation of the inhibitor from the enzyme can be obtained from the dependence of Vo /Vi on [I] shown in equation 1.

A further test concerns human trypsin. The experiment in a line: In vitro assay for determining proteinase inhibition, trypsin (p-nitroanilide substrate sar-PR-pna, 405 nm). The test is classed as biochemical. As to conditions: 25° C., pH 7.4, 1 mM CaCl2. As for the experimental part: (§3) In Vitro Assay for Determining Proteinase Inhibition
as §1, §2

Another test concerns human a-thrombin. Kind of test: In vitro assay for determining proteinase inhibition, thrombin (p-nitroanilide substrate sar-PR-pna, 405 nm). It counts as biochemical. As to conditions: 25° C., pH 7.4. As for the experimental part:
as §3, §1, §2

`N=C(N)NCCC[C@H](NC(=O)[C@@H]1CCCN1C(=O)CNC(=O)OCc1ccccc1)C(=O)Nc1ccc2c(C(F)(F)F)cc(=O)oc2c1` [Z-GPR-afc, Cbz-Gly-Pro-Arg-7-amino-4-trifluoromethylcoumarin] (Cbz-Gly-Pro-Arg-{AFC}): in the test with thrombin, the Km was 27 µM. For the molecule `CNCC(=O)N1CCC[C@H]1C(=O)N[C@@H](CCCNC(=N)N)C(=O)Nc1ccc([N+](=O)[O-])cc1` [sar-PR-pna, sarcosine-Pro-Arg-p-nitroanilide] (H-[Sar]-Pro-Arg-pNA), the Michaelis-Menten constant (Km) with human trypsin is 59 µM; in the test with human a-thrombin, 125 µM.
